From ChEMBL document CHEMBL1201862, “PubChem BioAssay data set” (2004)
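Values below derive from 48-hour exposures of cells grown in 96-well plates, with endpoints linearly interpolated between the two concentrations bracketing the appropriate inhibition level. GI50: concentration for 50% inhibition of growth.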 The source made the active and inactive calls. No stated cut-off is given here; in the data, active = GI50 up to about 1.1 µM and inactive = higher.

Assays:
Assay in all cases: NCI-60 cell line screen, 48 h
[1] = test system: 786-0
[2] = test system: BT-549
[3] = test system: CAKI-1
[4] = test system: HCT-15
[5] = test system: HL-60
[6] = test system: HT-29
[7] = test system: K562
[8] = test system: LOX IMVI
[9] = test system: MCF7
[10] = test system: MDA-MB-231
[11] = test system: MDA-MB-435
[12] = test system: MDA-N
[13] = test system: NCI-H226
[14] = test system: SF-295
[15] = test system: SN12C
[16] = test system: SNB-75
[17] = test system: UACC-62
[18] = test system: RXF 393
[19] = test system: OVCAR-4

Row | SMILES | GI50 [1] | GI50 [2] | GI50 [3] | GI50 [4] | GI50 [5] | GI50 [6] | GI50 [7] | GI50 [8] | GI50 [9] | GI50 [10] | GI50 [11] | GI50 [12] | GI50 [13] | GI50 [14] | GI50 [15] | GI50 [16] | GI50 [17] | GI50 [18] | GI50 [19]
1 | c1ccc2c(c1)CC1COc3ccccc3C1O2 (stereo not drawn) | 50.7 µM (inactive) | 70.3 µM (inactive) | 71.3 µM (inactive) | 40.2 µM | > 100 µM (inactive) | 33.4 µM (inactive) | > 100 µM (inactive) | 58.7 µM (inactive) | 45.2 µM (inactive) | 47.4 µM (inactive) | 47.4 µM (inactive) | 38 µM (inactive) | > 100 µM (inactive) | 64.4 µM (inactive) | 67.5 µM (inactive) | > 100 µM (inactive) | > 100 µM (inactive) |  | 
2 | N#Cc1c(-c2ccccc2)c(C#N)c(=S)n(C2OCC(O)C(O)C2O)c1N (stereo not drawn) | > 100 µM (inactive) | > 100 µM (inactive) | > 100 µM (inactive) | > 100 µM | > 100 µM (inactive) | > 100 µM (inactive) | > 100 µM (inactive) | > 100 µM (inactive) | > 100 µM (inactive) | > 100 µM (inactive) | > 100 µM (inactive) | > 100 µM (inactive) | > 100 µM (inactive) | > 100 µM (inactive) | > 100 µM (inactive) | > 100 µM (inactive) | > 100 µM (inactive) |  | 
3 | COc1cc(COC(=O)N2CC=CC2C(=O)O)c([N+](=O)[O-])cc1OC (stereo not drawn) | > 100 µM (inactive) | > 100 µM (inactive) |  | > 100 µM | > 100 µM (inactive) | > 100 µM (inactive) | > 100 µM (inactive) |  | > 100 µM (inactive) |  | > 100 µM (inactive) | > 100 µM (inactive) | > 100 µM (inactive) | > 100 µM (inactive) | > 100 µM (inactive) | > 100 µM (inactive) | > 100 µM (inactive) | > 100 µM (inactive) | 
4 | N#CC(=S)Nc1ccc(Cl)c(Cl)c1 | 35.7 µM (inactive) | 27 µM (inactive) | 29.8 µM (inactive) | 27.2 µM |  | 21.1 µM (inactive) | 11.7 µM (inactive) | 26.6 µM (inactive) | 35.5 µM (inactive) | 26.7 µM (inactive) | 27 µM (inactive) | 32.7 µM (inactive) | 22.4 µM (inactive) | 22.5 µM (inactive) | 30.5 µM (inactive) | 21.7 µM (inactive) | 19 µM (inactive) | 25.4 µM (inactive) | 
5 | O=c1c2cc(S(=O)(=O)Nc3ccc(Cl)cc3Cl)ccc2ncn1NS(=O)(=O)c1cccc2ccccc12 | 42 µM (inactive) | 16.5 µM (inactive) | 15.7 µM (inactive) | 34.1 µM | 14.5 µM (inactive) | 32 µM (inactive) | 63.5 µM (inactive) | 15.5 µM (inactive) | 20.7 µM (inactive) | 20.4 µM (inactive) | 58.9 µM (inactive) | 48 µM (inactive) | 18.6 µM (inactive) | 37.4 µM (inactive) | 91.6 µM (inactive) | 60.5 µM (inactive) | 28.9 µM (inactive) |  | 41.7 µM (inactive)
6 | CCCNC(=O)Nc1ccc2c(c1)Cc1cc(N(CCCl)CCCl)ccc1-2 | 34.6 µM (inactive) | 22 µM (inactive) | 22.4 µM (inactive) | 16.5 µM | 5.94 µM (inactive) | 3.24 µM (inactive) | 10.9 µM (inactive) | 12.2 µM (inactive) | 8.73 µM (inactive) | 28.4 µM (inactive) | 21.1 µM (inactive) |  |  | 14.2 µM (inactive) | 33 µM (inactive) |  | 21.9 µM (inactive) | 15.5 µM (inactive) | 
7 | COC1OC(C)C(NC(=O)OCC(Cl)(Cl)Cl)C2OC(C)(C)OC12 (stereo not drawn) | > 100 µM (inactive) | > 100 µM (inactive) | > 100 µM (inactive) | > 100 µM | > 100 µM (inactive) | > 100 µM (inactive) | > 100 µM (inactive) | > 10 µM (inactive) | > 100 µM (inactive) | > 100 µM (inactive) | > 100 µM (inactive) |  | > 100 µM (inactive) | > 100 µM (inactive) | > 100 µM (inactive) |  | > 100 µM (inactive) | > 100 µM (inactive) | > 100 µM (inactive)
8 | CSc1nc(Nc2ccccc2Cl)c2c(N)nn(C)c2n1 | 82 µM (inactive) | > 100 µM (inactive) | > 100 µM (inactive) | > 100 µM |  | > 100 µM (inactive) | > 100 µM (inactive) | 16 µM (inactive) |  | 28.3 µM (inactive) | > 100 µM (inactive) | > 100 µM (inactive) | > 100 µM (inactive) | > 100 µM (inactive) | > 100 µM (inactive) | > 10 µM (inactive) | > 100 µM (inactive) | 47.2 µM (inactive) | > 100 µM (inactive)
